This passage reports IC50 results from patent US20260232625A1, “NOVEL DECURSIN DERIVATIVE AND USE THEREOF FOR PREVENTING OR TREATING NON-SMALL CELL LUNG CANCER” (JAEIN R&P INC., priority 2023, published 2026).

The test system of one test is A549. The test can be described thus: MTT cytotoxicity evaluation against A549 cells. It counts as cell-based, human. The settings on record: Homo sapiens, A549, 48 h, Method 1: 12.5-200 μM, 48 hours. The protocol: A549 (human lung cancer cells) were obtained from the American Type Culture Collection (ATCC) and used. The cells were cultured in a medium containing 10% FBS, 1% penicillin (10,000 units/mL), and streptomycin (10 mg/mL), or in Dulbecco's Modified Eagle's Medium (DMEM), at 37° C. under 5% CO2 conditions.
To measure cytotoxicity, an MTT assay was used. Specifically, A549 cells cultured according to Experimental Example 1 were seeded into a 96-well plate at a density of 2.5×10^4 cells/mL in 100 μL, and incubated for 24 hours. Thereafter, the cells were treated with either the compounds prepared according to Examples 1 to 27 or, as comparative agents, decursin or docetaxel. The prepared compounds and decursin were each administered to the A549 cell line at concentrations of 0 μM (untreated), 12.5 μM, 25 μM, 50 μM, 100 μM, and 200 μM, while docetaxel was administered at concentrations of 0 nM (untreated), 0.1 nM, 1 nM, 10 nM, 100 nM, and 1,000 nM, followed by incubation for an additional 48 hours. Then, 20 μL of MTT solution was added (Method 1). Alternatively, the compounds prepared according to Examples 28 to 30, the compound of Example 5 as a reference compound or, as comparative agents, decursin or docetaxel, were used. The prepared compounds, the compound of Example 5, and decursin were each administered at concentrations of 0 μM (untreated), 3.125 μM, 6.25 μM, 12.5 μM, 25 μM, and 50 μM, while docetaxel was administered at concentrations of 0 nM (untreated), 0.6 nM, 1.25 nM, 2.5 nM, 5 nM, and 10 nM, and treated in the same manner as described in Method 1 (Method 2). The cells treated with MTT solution were incubated for 2 hours, the medium was removed, and the formazan blue crystals formed by the cells were treated with an MTT lysis buffer, followed by incubation in a cell incubator for 24 hours. The MTT lysis buffer was prepared by mixing N,N-dimethylformamide with water in a 1:1 ratio to give a solution containing 20% SIDS (sodium dodecyl sulfate) at the final concentration. The optical density at 590 nm was measured using a microplate reader (FIGS. 1a to 1d). Based on the measured values, the cytotoxicity (IC50) against A549 was calculated, and the results are disclosed in Table 1 together with the structural formulae.
Take `CC(C)=CC(=O)O[C@H]1Cc2cc3ccc(=O)oc3cc2OC1(C)C` [Decursin, decursin]: it took 43.6 µM to reach half-maximal inhibition (IC50).

Compound `CC1(C)Oc2cc3oc(=O)ccc3cc2C[C@@H]1OC(=O)CCn1ccnc1` [Example 1, (S)-2,2-dimethyl-8-oxo-2,3,4,8-tetrahydropyrano[3,2-g]chromen-3-yl 3-(1H-imidazol-1-yl)propanoate] gave an IC50 of more than 200 µM.

For the compound `CC1(C)Oc2cc3oc(=O)ccc3cc2C[C@@H]1OC(=O)CCc1ccccn1` [Example 2, (S)-2,2-dimethyl-8-oxo-2,3,4,8-tetrahydropyrano[3,2-g]chromen-3-yl 3-(pyridin-2-yl)propanoate], the IC50 is more than 200 µM.

`CC1(C)Oc2cc3oc(=O)ccc3cc2C[C@@H]1OC(=O)/C=C/c1ccccn1` [Example 3, (S,E)-2,2-dimethyl-8-oxo-2,3,4,8-tetrahydropyrano[3,2-g]chromen-3-yl 3-(pyridin-2-yl)acrylate]: the IC50 was determined as 113 µM.

Turning to `C/C(=C\c1ccccc1)C(=O)O[C@H]1Cc2cc3ccc(=O)oc3cc2OC1(C)C` [Example 4, (S,E)-2,2-dimethyl-8-oxo-2,3,4,8-tetrahydropyrano[3,2-g]chromen-3-yl 2-methyl-3-phenylacrylate], it took 80.7 µM to reach half-maximal inhibition (IC50).

Compound `CC1(C)Oc2cc3oc(=O)ccc3cc2C[C@@H]1OC(=O)CCc1ccc2c(c1)OCO2` [Example 6, (S)-2,2-dimethyl-8-oxo-2,3,4,8-tetrahydropyrano[3,2-g]chromen-3-yl 3-(benzo[d][1,3]dioxol-5-yl)propanoate] yielded an IC50 not below 219 µM.

Compound `CC1(C)Oc2cc3oc(=O)ccc3cc2C[C@@H]1OC(=O)/C=C/c1ccc2c(c1)OCO2` [Example 7, (S,E)-2,2-dimethyl-8-oxo-2,3,4,8-tetrahydropyrano[3,2-g]chromen-3-yl 3-(benzo[d][1,3]dioxol-5-yl)acrylate] returned an IC50 of more than 200 µM.

Compound `CN(C)S(=O)(=O)c1ccc(/C=C/C(=O)O[C@H]2Cc3cc4ccc(=O)oc4cc3OC2(C)C)cc1` [Example 8, (S,E)-2,2-dimethyl-8-oxo-2,3,4,8-tetrahydropyrano[3,2-g]chromen-3-yl 3-(4-(N,N-dimethylsulfamoyl)phenyl)acrylate] gave an IC50 of more than 200 µM.

Compound `CC1(C)Oc2cc3oc(=O)ccc3cc2C[C@@H]1OC(=O)/C=C/c1ccc(C(F)(F)F)cc1` [Example 9, (S,E)-2,2-dimethyl-8-oxo-2,3,4,8-tetrahydropyrano[3,2-g]chromen-3-yl 3-(4-(trifluoromethyl)phenyl)acrylate] yielded an IC50 of more than 200 µM.

On to `CC1(C)Oc2cc3oc(=O)ccc3cc2C[C@H]1OC(=O)CCn1ccnc1` [Example 10, (R)-2,2-dimethyl-8-oxo-2,3,4,8-tetrahydropyrano[3,2-g]chromen-3-yl 3-(1H-imidazol-1-yl)propanoate], for which the IC50 was more than 200 µM.

In turn, `CC1(C)Oc2cc3oc(=O)ccc3cc2C[C@H]1OC(=O)CCc1ccccn1` [Example 11, (R)-2,2-dimethyl-8-oxo-2,3,4,8-tetrahydropyrano[3,2-g]chromen-3-yl 3-(pyridin-2-yl)propanoate] showed an IC50 of more than 200 µM.

`CC1(C)Oc2cc3oc(=O)ccc3cc2C[C@H]1OC(=O)/C=C/c1ccccn1` [Example 12, (R,E)-2,2-dimethyl-8-oxo-2,3,4,8-tetrahydropyrano[3,2-g]chromen-3-yl 3-(pyridin-2-yl)acrylate] yielded an IC50 of 184 µM.

As for `C/C(=C\c1ccccc1)C(=O)O[C@@H]1Cc2cc3ccc(=O)oc3cc2OC1(C)C` [Example 13, (R,E)-2,2-dimethyl-8-oxo-2,3,4,8-tetrahydropyrano[3,2-g]chromen-3-yl 2-methyl-3-phenylacrylate], the IC50 turned out to be 108 µM.

On to `CC1(C)Oc2cc3oc(=O)ccc3cc2C[C@H]1OC(=O)/C=C/c1ccoc1` [Example 14, (R,E)-2,2-dimethyl-8-oxo-2,3,4,8-tetrahydropyrano[3,2-g]chromen-3-yl 3-(furan-3-yl)acrylate], for which the IC50 was found to be 152 µM.

`CC1(C)Oc2cc3oc(=O)ccc3cc2C[C@H]1OC(=O)CCc1ccc2c(c1)OCO2` [Example 15, (R)-2,2-dimethyl-8-oxo-2,3,4,8-tetrahydropyrano[3,2-g]chromen-3-yl 3-(benzo[d][1,3]dioxol-5-yl)propanoate] returned an IC50 of more than 200 µM.

`CC1(C)Oc2cc3oc(=O)ccc3cc2C[C@H]1OC(=O)/C=C/c1ccc2c(c1)OCO2` [Example 16, (R,E)-2,2-dimethyl-8-oxo-2,3,4,8-tetrahydropyrano[3,2-g]chromen-3-yl 3-(benzo[d][1,3]dioxol-5-yl)acrylate]: the IC50 was more than 200 µM.

Take `CN(C)S(=O)(=O)c1ccc(/C=C/C(=O)O[C@@H]2Cc3cc4ccc(=O)oc4cc3OC2(C)C)cc1` [Example 17, (R,E)-2,2-dimethyl-8-oxo-2,3,4,8-tetrahydropyrano[3,2-g]chromen-3-yl 3-(4-(N,N-dimethylsulfamoyl)phenyl)acrylate]: the IC50 is more than 200 µM.

For `CC1(C)Oc2cc3oc(=O)ccc3cc2C[C@H]1OC(=O)/C=C/c1ccc(C(F)(F)F)cc1` [Example 18, (R,E)-2,2-dimethyl-8-oxo-2,3,4,8-tetrahydropyrano[3,2-g]chromen-3-yl 3-(4-(trifluoromethyl)phenyl)acrylate], the IC50 was determined as 172 µM.

Turning to `CC1(C)Oc2cc3oc(=O)ccc3cc2[C@@H](NC(=O)CCn2ccnc2)[C@@H]1O` [Example 19, N-((3S,4R)-3-hydroxy-2,2-dimethyl-8-oxo-2,3,4,8-tetrahydropyrano[3,2-g]chromen-4-yl)-3-(1H-imidazol-1-yl)propanamide], the IC50 was more than 200 µM.

The compound `CC1(C)Oc2cc3oc(=O)ccc3cc2[C@@H](NC(=O)CCc2ccccn2)[C@@H]1O` [Example 20, N-((3S,4R)-3-hydroxy-2,2-dimethyl-8-oxo-2,3,4,8-tetrahydropyrano[3,2-g]chromen-4-yl)-3-(pyridin-2-yl)propanamide] showed an IC50 of more than 200 µM.

The compound `CC1(C)Oc2cc3oc(=O)ccc3cc2[C@@H](NC(=O)/C=C/c2ccccn2)[C@@H]1O` [Example 21, (E)-N-((3S,4R)-3-hydroxy-2,2-dimethyl-8-oxo-2,3,4,8-tetrahydropyrano[3,2-g]chromen-4-yl)-3-(pyridin-2-yl)acrylamide] returned an IC50 of more than 200 µM.

Compound `C/C(=C\c1ccccc1)C(=O)N[C@@H]1c2cc3ccc(=O)oc3cc2OC(C)(C)[C@H]1O` [Example 22, (E)-N-((3S,4R)-3-hydroxy-2,2-dimethyl-8-oxo-2,3,4,8-tetrahydropyrano[3,2-g]chromen-4-yl)-2-methyl-3-phenylacrylamide] gave an IC50 of more than 200 µM.

`CC1(C)Oc2cc3oc(=O)ccc3cc2[C@@H](NC(=O)/C=C/c2ccoc2)[C@@H]1O` [Example 23, (E)-3-(furan-3-yl)-N-((3S,4R)-3-hydroxy-2,2-dimethyl-8-oxo-2,3,4,8-tetrahydropyrano[3,2-g]chromen-4-yl)acrylamide]: the IC50 is more than 200 µM.

In turn, `CC1(C)Oc2cc3oc(=O)ccc3cc2[C@@H](NC(=O)CCc2ccc3c(c2)OCO3)[C@@H]1O` [Example 24, 3-(benzo[d][1,3]dioxol-5-yl)-N-((3S,4R)-3-hydroxy-2,2-dimethyl-8-oxo-2,3,4,8-tetrahydropyrano[3,2-g]chromen-4-yl)propanamide] gave an IC50 of more than 200 µM.

On to `CC1(C)Oc2cc3oc(=O)ccc3cc2[C@@H](NC(=O)/C=C/c2ccc3c(c2)OCO3)[C@@H]1O` [Example 25, (E)-3-(benzo[d][1,3]dioxol-5-yl)-N-((3S,4R)-3-hydroxy-2,2-dimethyl-8-oxo-2,3,4,8-tetrahydropyrano[3,2-g]chromen-4-yl)acrylamide], for which the IC50 came to 151 µM.

For `CN(C)S(=O)(=O)c1ccc(/C=C/C(=O)N[C@@H]2c3cc4ccc(=O)oc4cc3OC(C)(C)[C@H]2O)cc1` [Example 26, (E)-3-(4-(N,N-dimethylsulfamoyl)phenyl)-N-((3S,4R)-3-hydroxy-2,2-dimethyl-8-oxo-2,3,4,8-tetrahydropyrano[3,2-g]chromen-4-yl)acrylamide], the IC50 is more than 200 µM.

Regarding `CC1(C)Oc2cc3oc(=O)ccc3cc2[C@@H](NC(=O)/C=C/c2ccc(C(F)(F)F)cc2)[C@@H]1O` [Example 27, (E)-N-((3S,4R)-3-hydroxy-2,2-dimethyl-8-oxo-2,3,4,8-tetrahydropyrano[3,2-g]chromen-4-yl)-3-(4-(trifluoromethyl)phenyl)acrylamide], it took 73.4 µM to reach half-maximal inhibition (IC50).

Staying with this test, now noted: Homo sapiens, A549, 48 h, Method 2 (marked *): 3.125-50 μM, 48 hours.
The compound `CC(C)=CC(=O)O[C@H]1Cc2cc3ccc(=O)oc3cc2OC1(C)C` [Decursin, decursin] displayed an IC50 of 30.4 µM.

Compound `CC1(C)Oc2cc3oc(=O)ccc3cc2C[C@@H]1OC(=O)CCc1ccoc1` [Example 28, (S)-2,2-dimethyl-8-oxo-2,3,4,8-tetrahydropyrano[3,2-g]chromen-3-yl 3-(furan-3-yl)propanoate] yielded an IC50 of 96.1 µM.

A word on the IC50: it is the point on the concentration scale where inhibition reaches its midpoint.
